Reference: publication PMC10005264, “Computational Design, Synthesis, and Biophysical Evaluation of β-Amido Boronic Acids as SARS-CoV-2 M^pro Inhibitors” (Molecules, 2023)

Legend:
[1] = biological target: T1, recombinant Mpro^CoV-2 (SARS-CoV-2 M^pro) (Severe acute respiratory syndrome coronavirus 2, UniProt P0DTD1); test: FRET peptide cleavage assay (Dabcyl-KTSAVLQSGFRKME-Edans); assay type: biochemical
T1 construct: gene rep
Source text: FRET peptide cleavage assay (Dabcyl-KTSAVLQSGFRKME-Edans) on recombinant Mpro^CoV-2 (SARS-CoV-2 M^pro)

[2] = biological target: T2, His-tagged recombinant Mpro^CoV-2 (Severe acute respiratory syndrome coronavirus 2, UniProt P0DTD1); test: microscale thermophoresis binding check; settings: 50 nM labelled protein, PBS-T, 2.5% DMSO, 25 °C, 60-90 min incubation; tested concentration, not a Kd
T2 construct: gene rep
Source text: microscale thermophoresis binding check on His-tagged recombinant Mpro^CoV-2

| SMILES | inhibition at 20 µM [1] | Ligand Concentration Displaying: / Binding [2] |
| --- | --- | --- |
| NC(=O)CCC(=O)N(CC(=O)NC1CCCCC1)[C@H](CB(O)O)c1ccccc1 [3a, (R)-(2-(4-Amino-N-(2-(cyclohexylamino)-2-oxoethyl)-4-oxobutanamido)-2-phenylethyl)boronic Acid] | 23.4% |  |
| NC(=O)CCC(=O)N(CC(=O)NCc1ccccc1)[C@H](CB(O)O)c1ccccc1 [3c, (R)-(2-(4-Amino-N-(2-(benzylamino)-2-oxoethyl)-4-oxobutanamido)-2-phenylethyl)boronic Acid] |  | 4 µM |
| NC(=O)CCCC(=O)N(CC(=O)NCc1ccccc1)[C@H](CB(O)O)c1ccccc1 [3ea, (R)-(2-(5-Amino-N-(2-(benzylamino)-2-oxoethyl)-5-oxopentanamido)-2-phenylethyl)boronic Acid] | 23.7% |  |
| NC(=O)CCCC(=O)N(CC(=O)NCc1ccccc1)[C@@H](CB(O)O)c1ccccc1 [3eb, (S)-(2-(5-Amino-N-(2-(benzylamino)-2-oxoethyl)-5-oxopentanamido)-2-phenylethyl)boronic Acid] |  | 3.1 µM |
| CC(C)(C)NC(=O)CN(C(=O)CCCC(N)=O)[C@H](CB(O)O)c1ccccc1 [3f, (R)-(2-(5-Amino-N-(2-(tert-butylamino)-2-oxoethyl)-5-oxopentanamido)-2-phenylethyl)boronic Acid] |  | 1 µM |
